Measurements reported in PubChem BioAssay (NCI).
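48-hour exposure; five concentrations; linearly interpolated endpoints. The concentration for full growth arrest is given as TGI.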

What was measured:
Experiment in all cases: DTP human tumour cell line panel, 48 h
TK-10 renal = system: TK-10 renal
SK-MEL-28 melanoma = system: SK-MEL-28 melanoma
RPMI-8226 leukemia = system: RPMI-8226 leukemia
OVCAR-5 ovarian = system: OVCAR-5 ovarian
HOP-18 NSCLC = system: HOP-18 NSCLC
ACHN renal = system: ACHN renal
HL-60(TB) leukemia = system: HL-60(TB) leukemia
U251 CNS = system: U251 CNS
M19-MEL melanoma = system: M19-MEL melanoma
OVCAR-3 ovarian = system: OVCAR-3 ovarian
K-562 leukemia = system: K-562 leukemia
786-0 renal = system: 786-0 renal
KM12 colon = system: KM12 colon
SK-MEL-5 melanoma = system: SK-MEL-5 melanoma
SF-295 CNS = system: SF-295 CNS
NCI-H23 lung = system: NCI-H23 lung
SK-MEL-2 melanoma = system: SK-MEL-2 melanoma
A549 NSCLC = system: A549 NSCLC
DLD-1 colon = system: DLD-1 colon
LOX IMVI melanoma = system: LOX IMVI melanoma
IGROV1 ovarian = system: IGROV1 ovarian
UO-31 renal = system: UO-31 renal
EKVX NSCLC = system: EKVX NSCLC
CCRF-CEM leukemia = system: CCRF-CEM leukemia
CAKI-1 renal = system: CAKI-1 renal
LXFL 529 NSCLC = system: LXFL 529 NSCLC
OVCAR-8 ovarian = system: OVCAR-8 ovarian
HOP-92 NSCLC = system: HOP-92 NSCLC
SR leukemia = system: SR leukemia
A498 renal = system: A498 renal
KM20L2 colon = system: KM20L2 colon
COLO 205 colon = system: COLO 205 colon
SF-539 CNS = system: SF-539 CNS
DMS 273 small cell lung = system: DMS 273 small cell lung
SF-268 CNS = system: SF-268 CNS
M14 melanoma = system: M14 melanoma
SK-OV-3 ovarian = system: SK-OV-3 ovarian
HCT-116 colon = system: HCT-116 colon
NCI-H460 lung = system: NCI-H460 lung
HT29 colon = system: HT29 colon
HCT-15 colon = system: HCT-15 colon
MALME-3M melanoma = system: MALME-3M melanoma
HOP-62 NSCLC = system: HOP-62 NSCLC
UACC-62 melanoma = system: UACC-62 melanoma
SNB-19 CNS = system: SNB-19 CNS
NCI-H522 lung = system: NCI-H522 lung
HCC-2998 colon = system: HCC-2998 colon
SW-620 colon = system: SW-620 colon
SNB-75 CNS = system: SNB-75 CNS
SNB-78 CNS = system: SNB-78 CNS
UACC-257 melanoma = system: UACC-257 melanoma
SN12C renal = system: SN12C renal
NCI-H226 lung = system: NCI-H226 lung
MOLT-4 leukemia = system: MOLT-4 leukemia
OVCAR-4 ovarian = system: OVCAR-4 ovarian
DMS 114 small cell lung = system: DMS 114 small cell lung
RXF 393 renal = system: RXF 393 renal

COc1ccc(N2C(=O)C(N3C(=O)C=CC3=O)C2C=O)cc1 (stereo not drawn)
TGI (TK-10 renal): > 100 µM | TGI (SK-MEL-28 melanoma): > 100 µM | TGI (RPMI-8226 leukemia): > 100 µM | TGI (OVCAR-5 ovarian): > 100 µM | TGI (HOP-18 NSCLC): > 100 µM | TGI (ACHN renal): > 100 µM | TGI (HL-60(TB) leukemia): > 100 µM | TGI (U251 CNS): > 100 µM | TGI (M19-MEL melanoma): > 100 µM | TGI (OVCAR-3 ovarian): > 100 µM | TGI (K-562 leukemia): > 100 µM | TGI (786-0 renal): > 100 µM | TGI (KM12 colon): > 100 µM | TGI (SK-MEL-5 melanoma): > 100 µM | TGI (SF-295 CNS): > 100 µM | TGI (NCI-H23 lung): > 100 µM | TGI (SK-MEL-2 melanoma): > 100 µM | TGI (A549 NSCLC): > 100 µM | TGI (DLD-1 colon): > 100 µM | TGI (LOX IMVI melanoma): > 100 µM | TGI (IGROV1 ovarian): > 100 µM | TGI (UO-31 renal): > 100 µM | TGI (EKVX NSCLC): > 100 µM | TGI (CCRF-CEM leukemia): > 100 µM | TGI (CAKI-1 renal): > 100 µM | TGI (LXFL 529 NSCLC): > 100 µM | TGI (OVCAR-8 ovarian): > 100 µM | TGI (HOP-92 NSCLC): > 100 µM | TGI (SR leukemia): > 100 µM | TGI (A498 renal): > 100 µM | TGI (KM20L2 colon): > 100 µM | TGI (COLO 205 colon): > 100 µM | TGI (SF-539 CNS): > 100 µM | TGI (DMS 273 small cell lung): > 100 µM | TGI (SF-268 CNS): > 100 µM | TGI (M14 melanoma): > 100 µM | TGI (SK-OV-3 ovarian): > 100 µM | TGI (HCT-116 colon): > 100 µM | TGI (NCI-H460 lung): > 100 µM | TGI (HT29 colon): > 100 µM | TGI (HCT-15 colon): > 100 µM | TGI (MALME-3M melanoma): > 100 µM | TGI (HOP-62 NSCLC): > 100 µM | TGI (UACC-62 melanoma): > 100 µM | TGI (SNB-19 CNS): > 100 µM | TGI (NCI-H522 lung): > 100 µM | TGI (HCC-2998 colon): > 100 µM | TGI (SW-620 colon): > 100 µM | TGI (SNB-75 CNS): > 100 µM | TGI (SNB-78 CNS): > 100 µM | TGI (UACC-257 melanoma): > 100 µM | TGI (SN12C renal): > 100 µM

CN/N=C(\C(=O)Nc1ccc([N+](=O)[O-])cc1[N+](=O)[O-])C1NC(=O)NC1=O (stereo not drawn)
TGI (TK-10 renal): > 100 µM | TGI (SK-MEL-28 melanoma): > 100 µM | TGI (RPMI-8226 leukemia): > 100 µM | TGI (OVCAR-5 ovarian): > 100 µM | TGI (HOP-18 NSCLC): > 100 µM | TGI (ACHN renal): > 100 µM | TGI (HL-60(TB) leukemia): > 100 µM | TGI (U251 CNS): 96.1 µM | TGI (M19-MEL melanoma): > 100 µM | TGI (OVCAR-3 ovarian): > 100 µM | TGI (K-562 leukemia): > 100 µM | TGI (786-0 renal): > 100 µM | TGI (KM12 colon): > 100 µM | TGI (SK-MEL-5 melanoma): > 100 µM | TGI (SF-295 CNS): > 100 µM | TGI (NCI-H23 lung): > 100 µM | TGI (SK-MEL-2 melanoma): > 100 µM | TGI (A549 NSCLC): > 100 µM | TGI (DLD-1 colon): > 100 µM | TGI (LOX IMVI melanoma): > 100 µM | TGI (IGROV1 ovarian): > 100 µM | TGI (UO-31 renal): > 100 µM | TGI (EKVX NSCLC): > 100 µM | TGI (CCRF-CEM leukemia): > 100 µM | TGI (NCI-H226 lung): > 100 µM | TGI (CAKI-1 renal): > 100 µM | TGI (LXFL 529 NSCLC): > 100 µM | TGI (OVCAR-8 ovarian): > 100 µM | TGI (HOP-92 NSCLC): > 100 µM | TGI (SR leukemia): > 100 µM | TGI (A498 renal): > 100 µM | TGI (KM20L2 colon): > 100 µM | TGI (COLO 205 colon): > 100 µM | TGI (SF-539 CNS): > 100 µM | TGI (DMS 273 small cell lung): > 100 µM | TGI (SF-268 CNS): > 100 µM | TGI (M14 melanoma): > 100 µM | TGI (SK-OV-3 ovarian): > 100 µM | TGI (HCT-116 colon): > 100 µM | TGI (MOLT-4 leukemia): > 100 µM | TGI (NCI-H460 lung): > 100 µM | TGI (HT29 colon): > 100 µM | TGI (HCT-15 colon): > 100 µM | TGI (MALME-3M melanoma): > 100 µM | TGI (HOP-62 NSCLC): > 100 µM | TGI (UACC-62 melanoma): > 100 µM | TGI (OVCAR-4 ovarian): > 100 µM | TGI (SNB-19 CNS): > 100 µM | TGI (DMS 114 small cell lung): > 100 µM | TGI (RXF 393 renal): > 100 µM | TGI (HCC-2998 colon): > 100 µM | TGI (SW-620 colon): > 100 µM | TGI (SNB-75 CNS): > 100 µM | TGI (SNB-78 CNS): > 100 µM | TGI (UACC-257 melanoma): > 100 µM | TGI (SN12C renal): > 100 µM
